{
  "source": "patent EP2974714B1",
  "about": "“USE OF DERIVATIVES WITH C-O-P BONDS IN PATIENTS WITH RENAL FAILURE” (LABORATORIS SANIFIT, S.L., priority 2013, dated 2014)",
  "key": {"proteins": {"test_system": "proteins", "assay": "Binding of IP6 to proteins (dialysability)", "type": "in vitro ADME"}, "[1]": {"assay": "PK profile of IP6 s.c. in rats with normal and diminished kidney function", "type": "in vivo, Wistar rats", "protocol": "Experimental: a single s.c. dose (10 mg/kg) was administered to rats with normal kidney function. Plasma samples were obtained at different timepoints up to 60 minutes. A different group of Wistar rats received oral treatment with adenine 600 mg/kg (p.o.) for 10 days to induce renal impairment. Alpha-calcidol (300 ng/kg) was administered on days 11 and 13 and plasma samples were collected at different timepoints up to 60 minutes on day 14. The plasma IP6 concentrations were quantified for both groups."}, "[2]": {"assay": "HAP crystallisation induction period (synergy with other treatments)", "type": "physicochemical", "protocol": "Experimental: hydroxyapatite (HAP) was crystallised by mixing appropriate concentrations of calcium and phosphate at pH 7.4. The effect of cinacalcet and sevelamer was simulated by suitably modifying the calcium and phosphate concentrations. The induction period (time required for HAP to begin to crystallise) was recorded as the analytical signal."}, "[3]": {"assay": "In vitro affinity (adsorption) of IP6 for hydroxyapatite", "type": "binding", "settings": "for maximum adsorption of IP6 on the HAP surface: 7.6 µM IP6 for 8 hours", "protocol": "[…] The total quantity of IP6 bound to the surface of the target (HAP) was quantified.\nTo characterise the behaviour of IP6 binding, the EC50 and Emax for the adsorption thereof on HAP were calculated. This was performed using a non-linear regression model (Log[agonist] vs. response - slope variable; GraphPad Prism software)."}, "[4]": {"test_system": "tissue calcification in uraemic animals", "assay": "Adenine model, non-bolus-type intravascular administration", "type": "in vivo, male Wistar rats", "protocol": "Experimental: CKD was induced in 2 groups (n=12) of male Wistar rats by oral (p.o.) treatment with adenine (600 mg/kg/day) daily for 10 days. After treatment with adenine, the rats received alpha-calcidol at a dose of 300 ng/kg (3x/week, p.o.) until day 28. From day 0 until sacrifice (day 28), the animals were treated with an intravascular infusion of 50 mg/kg IP6 or saline for 4 hours. After 28 days the aorta and heart were collected, and the tissue calcium content determined."}, "[5]": {"assay": "Release of IP6 from the HAP surface", "type": "binding", "settings": "after incubation for 2 days in IP6-free solution", "protocol": "Experimental: 130 mg HAP was incubated in triplicate with 7.6 µM IP6, at 37°C, pH 7.4, for different time intervals while stirring continuously. Subsequently, the HAP with adsorbed IP6 was placed in an IP6-free solution and the amount of IP6 released from the surface thereof evaluated at different timepoints."}, "[6]": {"test_system": "vit D-induced cardiovascular calcification in rats", "assay": "Inhibition of vit D-induced (300,000 IU/kg x 3) cardiovascular calcification by s.c. IP6", "type": "in vivo, male SD rats", "protocol": "Experimental: male SD rats were divided into 9 groups. Two of said groups (sham and control groups) received s.c. saline 2 ml/kg; 6 groups received s.c. […] One group was treated with a s.c. Alzet pump loaded with 200 mg/ml IP6. Calcification was induced by oral administration of 300,000 IU/kg vitamin D (2 ml/kg) for 3 days starting on treatment day 3. […] The calcium content in heart, aorta and kidneys was determined after treatment for 7 days."}, "[7]": {"assay": "PK profile of IP6 by 4 h intravenous infusion in normal and uraemic rats", "type": "in vivo, Wistar rats", "protocol": "Experimental: Wistar rats with normal kidney function were treated daily with a dose of 10 or 50 mg/kg IP6 by intravenous infusion over 4 h. Plasma samples were obtained at different timepoints up to 4 hours on day 0. The animals were then treated orally with 600 mg/kg (p.o.) adenine for 10 days to induce renal impairment. The animals were treated with alpha-calcidol (300 ng/kg) on days 11 and 13 and plasma samples were collected at different timepoints up to 4 hours on day 14. The plasma IP6 levels were quantified for both groups."}, "[8]": {"assay": "Administration of IP6 via the dialysis system (dialysability, calcium chelation in blood)", "type": "in vitro ADME, human", "protocol": "Experimental: 1 litre of human blood obtained from patients undergoing therapeutic phlebotomy was introduced into a recipient forming a closed dialysis circuit to simulate a real dialysis. Two experiments were performed (administration pre- and post-dialyser, both in bypass and dialysis mode), administering IP6 to human blood for 20 minutes when outside the recipient (which simulated the animal or human body) and circulating via the dialysis circuit. The recipient containing 1 litre of whole blood at a controlled temperature of 37°C is connected to the dialysis apparatus to form a closed circuit. The dialysis apparatus will be connected for 1 hour (dialysis fluid flow of 500 ml/min and blood flow of 350 ml/min). Blood samples are collected at different times to determine the IP6 and ionic calcium levels."}, "[9]": {"test_system": "progression of vitamin D-induced vascular calcification", "assay": "Progression of vitamin D-induced calcification (100,000 IU/kg x 3), rat model for 2 weeks", "type": "in vivo, SD rats", "settings": "highest dose (60 mg/kg s.c.), days 5 to 14", "protocol": "Experimental: 48 SD rats were treated x3 with vitamin D (s.c. 100,000 IU/kg) to induce tissue calcification. Calcification was allowed to progress for 5 days, and treatment with 0, 10 or 60 mg/kg IP6 s.c. was administered from day 5 until day 14. Calcification of the kidneys and heart was evaluated."}, "cardiovascular function": {"test_system": "cardiovascular function", "assay": "Cardiovascular function after bolus-type intravenous administration in conscious dogs by telemetry", "type": "in vivo", "protocol": "Experimental: 4 male dogs, 2 per dose, were injected with 10, 15 and 30 mg/kg. Two washout days were introduced between the different doses. The ECGs were recorded telemetrically. Blood ionic calcium concentrations were determined on different days to the ECG measurements."}, "[10]": {"settings": "normal Wistar rats, single s.c. dose 10 mg/kg"}, "[11]": {"settings": "uraemic rats (adenine), s.c. 10 mg/kg"}, "[12]": {"settings": "intravascular infusion of 50 mg/kg for 4 hours, 28 days, adenine uraemic rats"}, "[13]": {"settings": "uraemic rats, 10 mg/kg i.v. infusion over 4 h"}, "[14]": {"settings": "uraemic rats, 50 mg/kg i.v. infusion over 4 h"}},
  "note": "pEC50: −log10 of the molar value.",
  "data": [
    {"molecule": "O=P(O)(O)O[C@H]1[C@H](OP(=O)(O)O)[C@@H](OP(=O)(O)O)[C@H](OP(=O)(O)O)[C@@H](OP(=O)(O)O)[C@H]1OP(=O)(O)O", "note": "[IP6, inositol hexaphosphate]", "values": [
      {"measurement": "binding of IP6 to proteins", "setting": "proteins", "result": "70-90%"},
      {"measurement": "compound available to be dialysed", "setting": "proteins", "result": "10-30%"},
      {"measurement": "duration of measurable levels", "setting": "[1]; [10]", "result": "at least 30 minutes"},
      {"measurement": "peak concentration (plasma IP6)", "setting": "[1]; [10]", "result": 7.4, "unit": "µM"},
      {"measurement": "time of peak concentration post-administration", "setting": "[1]; [10]", "result": 15, "unit": "min"},
      {"measurement": "peak concentration (plasma IP6)", "setting": "[1]; [11]", "result": 1.8, "unit": "µM"},
      {"measurement": "time of peak concentration post-administration", "setting": "[1]; [11]", "result": 5, "unit": "min"},
      {"measurement": "induction time (time required for HAP to begin to crystallise)", "setting": "[2]; 11.4 µM IP6, pH 7.4, control 8 minutes", "result": 28, "unit": "min"},
      {"measurement": "effect of adding IP6 to simulated cinacalcet and sevelamer", "setting": "[2]; IP6 0-11.4 µM with constant simulated concentration of cinacalcet or sevelamer", "result": "clear synergistic effect"},
      {"measurement": "maximum adsorption of IP6 on the HAP surface", "setting": "[3]; 25 mg HAP", "result": 6.42, "unit": "mg"},
      {"measurement": "pEC50", "setting": "[3]; 25 mg HAP, non-linear regression", "result": 6.34},
      {"measurement": "pEC50", "setting": "[3]; 75 mg HAP, non-linear regression", "result": 6.02},
      {"measurement": "pEC50", "setting": "[3]; 130 mg HAP, non-linear regression", "result": 5.91},
      {"measurement": "maximum adsorption of IP6 on the HAP surface", "setting": "[3]; 300 mg HAP", "result": 4.8, "unit": "mg"},
      {"measurement": "pEC50", "setting": "[3]; 300 mg HAP, non-linear regression", "result": 5.68},
      {"measurement": "IP6 concentration at saturation of adsorption on HAP", "setting": "[3]; 37°C, pH 7.4", "result": "≥ 7.6", "unit": "µM"},
      {"measurement": "Emax for adsorption on HAP (saturation value)", "setting": "[3]; non-linear regression", "result": 6.42, "unit": "mg/g"},
      {"measurement": "reduction of plasma IP6 levels by the end of the experiment", "setting": "[4]; due to high metabolic rate, 50 mg/kg infusion, uraemic rats", "result": 90, "unit": "%"},
      {"measurement": "reduction in average calcification in the aorta", "setting": "[4]; [12]", "result": 80, "unit": "%"},
      {"measurement": "reduction in average calcification in the heart", "setting": "[4]; [12]", "result": 85, "unit": "%"},
      {"measurement": "IP6 remaining bound to the HAP surface", "setting": "[5]", "result": 80, "unit": "%"},
      {"measurement": "reduction in calcification", "setting": "[6]; prolonged administration, s.c. Alzet pump loaded with 200 mg/ml IP6", "result": 85, "unit": "%"},
      {"measurement": "efficacy (inhibition of calcification)", "setting": "[6]; s.c. doses of 60 and 100 mg/kg", "result": "approximately 60%"},
      {"measurement": "minimum dose that produced a significant effect on calcification", "setting": "[6]; s.c., 7 days treatment", "result": 10, "unit": "mg/kg"},
      {"measurement": "EC50 for inhibition of aortic calcification", "setting": "[6]; s.c., dose-response", "result": 3.75, "unit": "mg/kg"},
      {"measurement": "Emax for inhibition of aortic calcification", "setting": "[6]; s.c., dose-response", "result": 65.5, "unit": "%"},
      {"measurement": "concentration at 4 h", "setting": "[7]; Wistar, rat, plasma, iv, uraemic rats, 10 mg/kg i.v. infusion over 4 h, read-out: plasma concentration after 4 hours", "result": 1200, "unit": "nM"},
      {"measurement": "peak plasma concentration", "setting": "[7]; normal rats, 10 mg/kg i.v. infusion over 4 h", "result": 8.4, "unit": "µM"},
      {"measurement": "peak plasma concentration", "setting": "[7]; normal rats, 50 mg/kg i.v. infusion over 4 h", "result": 68.4, "unit": "µM"},
      {"measurement": "peak concentration", "setting": "[7]; [13]", "result": 2.8, "unit": "µM"},
      {"measurement": "time of peak concentration", "setting": "[7]; [13]", "result": 30, "unit": "min"},
      {"measurement": "peak plasma concentration", "setting": "[7]; [14]", "result": 24.6, "unit": "µM"},
      {"measurement": "time of peak plasma concentration", "setting": "[7]; [14]", "result": 4, "unit": "h"},
      {"measurement": "period with approximately constant concentration", "setting": "[7]; uraemic rats, 50 mg/kg i.v. infusion, from hour 1 to hour 4", "result": 3, "unit": "h"},
      {"measurement": "loss of IP6 via the dialysis membrane", "setting": "[8]; administration via the dialysis line for 20 minutes, 1 litre human blood, 37°C", "result": "not lost via the dialysis membrane"},
      {"measurement": "effect on free calcium in blood", "setting": "[8]; apparatus in bypass mode", "result": "chelates (sequesters) free calcium"},
      {"measurement": "effect on ionic calcium levels in blood", "setting": "[8]; apparatus in dialysis mode", "result": "ionic calcium levels are restored"},
      {"measurement": "inhibition of the progression of heart calcification", "setting": "[9]", "result": 100, "unit": "%"},
      {"measurement": "inhibition of the progression of renal calcification", "setting": "[9]", "result": 95, "unit": "%"},
      {"measurement": "dose above which mild tachycardia and prolonged QTc interval were observed", "setting": "cardiovascular function; i.v. bolus", "result": "above 15 mg/kg"},
      {"measurement": "dose above which tachycardia and QTc prolongation become significant", "setting": "cardiovascular function; i.v. bolus", "result": "above 30 mg/kg"},
      {"measurement": "effects on ECG parameters or ionic calcium concentrations", "setting": "cardiovascular function; i.v. bolus 10 mg/kg", "result": "no significant effects"},
      {"measurement": "decrease in ionic calcium", "setting": "cardiovascular function; i.v. bolus, correlated with the prolonged QTc interval", "result": 30, "unit": "%"}
    ]}
  ]
}
